Data on eight molecules can be found in ChEMBL document CHEMBL3779816, “Microwave-assisted regioselective direct CH arylation of thiazole derivatives leading to increased 1receptor affinity” (Medchemcomm, 2016).

For one test, the species on record is Rattus norvegicus. As to the kind of experiment: Displacement of [3H]di-o-tolylguanidine from sigma 2 receptor in rat liver membranes at 1 uM after 120 mins by liquid scintillation spectrometry in presence of (+)-pentazocine. Format: cell membranes. The conditions noted are these: Membrane.
Test [1] can be described thus: Displacement of [3H]di-o-tolylguanidine from sigma 2 receptor in rat liver membranes after 120 mins by liquid scintillation spectrometry in presence of (+)-pentazocine. Format: cell membranes, Membrane.
For test [2], the target named is Sigma non-opioid intracellular receptor 1 (Cavia porcellus, UniProt Q60492). As to the kind of experiment: Displacement of [3H](+)-pentazocine from sigma 1 receptor in guinea pig brain membranes after 150 mins by liquid scintillation spectrometry. Format: cell membranes, Membrane.
Sigma non-opioid intracellular receptor 1, sequence (Q60492 whole entry): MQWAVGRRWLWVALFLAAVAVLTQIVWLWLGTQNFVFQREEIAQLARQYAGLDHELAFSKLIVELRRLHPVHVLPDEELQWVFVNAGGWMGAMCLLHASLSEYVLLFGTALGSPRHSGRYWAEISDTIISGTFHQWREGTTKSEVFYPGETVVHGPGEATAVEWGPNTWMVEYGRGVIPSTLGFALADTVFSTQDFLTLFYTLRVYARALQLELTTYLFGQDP

Turning to `COC1Cc2c(-c3ccc(C)cc3)csc2C2(CCN(Cc3ccccc3)CC2)O1` (stereo unspecified), the inhibition in the test listed under Rattus norvegicus was 34%. As for `COC1Cc2cc(-c3ccc(C)cc3)sc2C2(CCN(Cc3ccccc3)CC2)O1` (stereo unspecified), the inhibition in the test listed under Rattus norvegicus came out at 44%. In the case of `O=C(CCCN1CCC(O)(c2ccc(Cl)cc2)CC1)c1ccc(F)cc1` [HALOPERIDOL], the Ki in test [1] was determined as 22 nM. As for `COC1Cc2ccsc2C2(CCN(Cc3ccccc3)CC2)O1` (stereo unspecified), the inhibition in the test filed under Rattus norvegicus was determined as 16%. With `Cc1ccc(-c2cnc(C3(O)CCN(Cc4ccccc4)CC3)s2)cc1`, the Ki in test [2] came out at 7 nM; in test [1], 457 nM. In the same order, the values of `Cc1ccc(-c2csc(C3(O)CCN(Cc4ccccc4)CC3)n2)cc1` are 3.8 nM and 154 nM.

`OC1(c2nccs2)CCN(Cc2ccccc2)CC1`: the results for the Ki in test [2] and in test [1] were 33 nM and 1800 nM, respectively. With `Cc1ccccc1NC(=N)Nc1ccccc1C` [DITOLYLGUANIDINE], the Ki in test [1] was found to be 107 nM.
